Results published in ChEMBL document CHEMBL1128140, “Novel indolocarbazole protein kinase c inhibitors with improved biochemical and physicochemical properties” (Bioorg Med Chem Lett, 1995).

Tests used:
[1] = target: T1, cGMP-dependent protein kinase 1 (Bos taurus, UniProt P00516); assay: Tested for inhibition of cGMP-dependent protein kinase from bovine lung
T1 sequence (P00516 whole entry): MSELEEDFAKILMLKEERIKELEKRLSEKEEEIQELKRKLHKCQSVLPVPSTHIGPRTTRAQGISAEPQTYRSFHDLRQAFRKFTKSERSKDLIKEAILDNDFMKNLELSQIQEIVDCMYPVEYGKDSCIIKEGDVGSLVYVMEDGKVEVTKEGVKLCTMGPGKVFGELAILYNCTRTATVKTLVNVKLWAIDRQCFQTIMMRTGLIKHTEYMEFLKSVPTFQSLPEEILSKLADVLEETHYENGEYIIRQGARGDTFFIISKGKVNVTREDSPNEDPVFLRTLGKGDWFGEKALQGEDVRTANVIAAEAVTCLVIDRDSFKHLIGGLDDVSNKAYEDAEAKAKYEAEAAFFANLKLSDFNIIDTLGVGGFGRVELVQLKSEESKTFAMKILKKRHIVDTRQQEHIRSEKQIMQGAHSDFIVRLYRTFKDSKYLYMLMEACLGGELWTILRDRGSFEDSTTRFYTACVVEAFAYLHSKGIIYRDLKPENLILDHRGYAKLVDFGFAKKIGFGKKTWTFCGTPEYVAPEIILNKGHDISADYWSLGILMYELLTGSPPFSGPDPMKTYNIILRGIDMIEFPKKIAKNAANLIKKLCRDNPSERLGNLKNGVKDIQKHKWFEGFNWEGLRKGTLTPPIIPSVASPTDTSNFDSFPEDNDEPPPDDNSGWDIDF

[2] = target: Protein kinase C (PKC); assay: Tested for inhibition of protein kinase C from rat brain
[3] = Tested for inhibition of catalytic subunit of cAMP-dependent protein kinase from bovine heart
[4] = target: Tyrosine-protein kinase Blk (Mus musculus, UniProt P16277); assay: Tested for inhibition of general tyrosine-specific protein kinase activity from murine B cell lysate; format: cell-based
Chain of Tyrosine-protein kinase Blk (P16277 whole entry): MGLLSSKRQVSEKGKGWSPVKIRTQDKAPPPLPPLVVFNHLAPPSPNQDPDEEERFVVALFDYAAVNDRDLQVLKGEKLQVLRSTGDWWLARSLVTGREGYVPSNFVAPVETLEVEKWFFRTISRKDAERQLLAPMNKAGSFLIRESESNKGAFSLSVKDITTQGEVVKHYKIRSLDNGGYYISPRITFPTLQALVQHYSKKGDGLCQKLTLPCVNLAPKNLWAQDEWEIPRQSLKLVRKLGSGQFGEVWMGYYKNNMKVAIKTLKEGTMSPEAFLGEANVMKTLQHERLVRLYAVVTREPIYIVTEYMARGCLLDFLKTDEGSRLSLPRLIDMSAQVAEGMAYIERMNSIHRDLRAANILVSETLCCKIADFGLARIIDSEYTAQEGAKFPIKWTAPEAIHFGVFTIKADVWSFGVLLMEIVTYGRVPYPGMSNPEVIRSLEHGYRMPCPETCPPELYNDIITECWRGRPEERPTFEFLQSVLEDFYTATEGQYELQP

SMILES | IC50 [1] [nM] | IC50 [2] [nM] | IC50 [3] [nM] | IC50 [4] [nM] | IC50 ([2]; read-out: IC50) [nM]
CN(C)CCCn1c2ccccc2c2c3c(c4c5ccccc5[nH]c4c21)C(=O)NC3 | 420 | 230 | > 10000 | – | –
CN(C)CC(O)Cn1c2ccccc2c2c3c(c4c5ccccc5n(C)c4c21)C(=O)NC3=O (centres undefined) | 2100 | 21 | 6300 | – | –
CN(C)CCCn1c2ccc(O)cc2c2c3c(c4c5cc(O)ccc5[nH]c4c21)C(=O)NC3 | – | 16 | – | – | –
CN(C)CCCn1c2ccccc2c2c3c(c4c5ccccc5n(C)c4c21)C(=O)NC3 | 870 | 45 | 9900 | – | –
COc1ccc2[nH]c3c(c4c(c5c6cc(OC)ccc6n(CCCN(C)C)c35)CNC4=O)c2c1 | – | 550 | – | – | –
CN(C)CC(O)Cn1c2ccccc2c2c3c(c4c5ccccc5n(C)c4c21)C(=O)NC3 (centres undefined) | 9400 | 30 | 24000 | > 100000 | –
COc1ccc2c(c1)c1c3c(c4c5cc(OC)ccc5n(CCC#N)c4c1n2C)CNC3=O | 2000 | 56 | 45000 | > 10000 | –
Cn1c2ccccc2c2c3c(c4c5ccccc5n(CCC#N)c4c21)C(=O)NC3=O | 7200 | 38 | > 30000 | – | –
Cn1c2ccc(O)cc2c2c3c(c4c5cc(O)ccc5n(CCC#N)c4c21)CNC3=O | – | 9 | – | – | –

Second part, the molecule after the results:

IC50 [1] [nM] | IC50 [2] [nM] | IC50 [3] [nM] | IC50 [4] [nM] | IC50 ([2]; read-out: IC50) [nM] | SMILES
220 | 32 | 750 | – | – | Cn1c2ccccc2c2c3c(c4c5ccccc5n(CCCN)c4c21)CNC3=O
1000 | 5 | 200 | – | – | COc1ccc2c(c1)c1c3c(c4c5ccccc5n(C)c4c1n2CCCC#N)C(=O)NC3=O
4800 | 4 | 510 | – | – | COc1ccc2c(c1)c1c3c(c4c5ccccc5n(C)c4c1n2CC(O)CN(C)C)C(=O)NC3=O (centres undefined)
> 3000 | 2 | 400 | > 10000 | – | COc1ccc2c(c1)c1c3c(c4c5ccccc5n(C)c4c1n2CCC#N)C(=O)NC3=O
23000 | 86 | 15000 | > 10000 | – | COc1ccc2c(c1)c1c3c(c4c5ccccc5n(C)c4c1n2CC(O)CN(C)C)C(=O)NC3 (centres undefined)
– | 16 | – | – | – | COc1ccc2c(c1)c1c3c(c4c5ccccc5n(CCC#N)c4c1n2C)C(=O)NC3=O
– | 6 | – | – | – | COc1ccc2c(c1)c1c3c(c4c5cc(OC)ccc5n(CCC#N)c4c1n2C)C(=O)NC3=O
– | – | > 100000 | – | 20 | Cn1c2ccccc2c2c3c(c4c5ccccc5n(CCC#N)c4c21)CNC3=O [GO-6976]
